≈ marks a conversion by molar mass, not a printed value. Read-outs that look alike come from different tables or passages of the source.
Key:
[1] = test system: Staphylococcus aureus 209P IAM-1011; assay: in vitro MIC, agar streak method; assay type: cell-based; conditions: Heart infusion agar
Sarcina lutea IAM1009 = assay: in vitro MIC, agar streak method; assay type: cell-based; conditions: Heart infusion agar
[2] = test system: Micrococcus flavus ATCC-10240; assay: in vitro MIC, agar streak method; assay type: cell-based; conditions: Heart infusion agar
Description: (§1) | ^(1) Heart infusion agar

[3] = test system: Staphylococcus epidermidis IFO-12993; assay: in vitro MIC, agar streak method; assay type: cell-based; conditions: Heart infusion agar
Description: as §1

[4] = test system: Escherichia coli K-12 IAM-1264; assay: in vitro MIC, agar streak method; assay type: cell-based; conditions: Escherichia coli K-12 IAM-1264, Heart infusion agar
Description: as §1

[5] = test system: Escherichia coli NIHJ IFO-12734; assay: in vitro MIC, agar streak method; assay type: cell-based; conditions: Escherichia coli NIHJ IFO-12734, Heart infusion agar
Description: as §1

[6] = test system: Bacillus subtilis IAM-1027; assay: in vitro MIC, agar streak method; assay type: cell-based; conditions: Bacillus subtilis IAM-1027, Heart infusion agar
Description: as §1

Bacillus cereus Rol79B = assay: in vitro MIC, agar streak method; assay type: cell-based; conditions: Heart infusion agar
Description: as §1

[7] = test system: Candida tropicalis ATCC-13803; assay: in vitro MIC, agar streak method; assay type: cell-based; conditions: Candida tropicalis ATCC-13803, Sabouraud dextrose agar
Description: (§2) | ^(2) Sabouraud dextrose agar

[8] = test system: Candida albicans ATCC-10231; assay: in vitro MIC, agar streak method; assay type: cell-based; conditions: Candida albicans ATCC-10231, Sabouraud dextrose agar
Description: as §2

P388 leukaemia = assay: Antitumor effect against P388 leukaemia in CDF1 mice; assay type: in vivo; conditions: Mus musculus, ip, days 1, 5 and 9, 1×10^6 P388 cells i.p., CDF1 mice, read-out: Mean survival (T/C, %); for response vs control in vivo at 1.5 mg/kg: 1.5 mg/kg/day i.p.; for response vs control in vivo at 3 mg/kg: 3.0 mg/kg/day i.p.; for response vs control in vivo at 6 mg/kg: 6.0 mg/kg/day i.p.; for response vs control in vivo at 12 mg/kg: 12.0 mg/kg/day i.p.
Procedure: The anthracycline glycosides provided by the present invention were tested against P388 leukaemia in mice. When CDF1 mice are inoculated with 1×10^6 cells of P388 intraperitoneally and each of the antibiotics is administered intraperitoneally on days 1, 5 and 9, the survival time of the treated mice is prolonged as shown in Table 5 hereinafter.

in vivo = conditions: mouse, ip, mice, single i.p. injection, judged 72 hours after, read-out: acute intraperitoneal LD50
Procedure: The acute intraperitoneal LD50 in mice judged 72 hours after a single injection of the antibiotics is about 90 mg/kg for auramycin C, auramycin D, sulfurmycin C and sulfurmycin D, 40~80 mg/kg for auramycin G and sulfurmycin G and 20~40 mg/kg for auramycin E and sulfurmycin E.

[9] = test system: Staphylococcus aureus 209P Stf; assay: in vitro MIC, agar streak method; assay type: cell-based; conditions: Heart infusion agar
Description: as §1

[10] = test system: Mycobacterium smegmatis IFO-13167; assay: in vitro MIC, agar streak method; assay type: cell-based; conditions: Mycolicibacterium smegmatis, IFO13167; Mycobacterium smegmatis IFO-13167; Heart infusion agar; read-out: MIC
Description: as §1

[11] = test system: Pseudomonas aeruginosa IFO-12689; assay: in vitro MIC, agar streak method; assay type: cell-based; conditions: IFO12689, Heart infusion agar
Description: as §1

[12] = Staphylococcus epidermidis IFO-12993
[13] = Staphylococcus aureus, read-out: MIC
[14] = Micrococcus luteus, IAM1009, Sarcina lutea IAM-1009, read-out: MIC
[15] = Micrococcus flavus, ATCC10240, Micrococcus flavus ATCC-10240, read-out: MIC
[16] = Staphylococcus epidermidis, IFO12993, Staphylococcus epidermidis IFO-12993, read-out: MIC

Row | Structure (SMILES) | MIC [1] [µg/mL] | MIC (Sarcina lutea IAM1009; Sarcina lutea IAM-1009) [µg/mL] | MIC ([2]; Micrococcus flavus ATCC-10240) [µg/mL] | MIC [3, 12] [µg/mL] | MIC [4] [µg/mL] | MIC [5] [µg/mL] | MIC [6] [µg/mL] | MIC (Bacillus cereus Rol79B) [µg/mL] | MIC [7] [µg/mL] | MIC [8] [µg/mL] | MIC [1, 13] [µg/mL] | MIC (Sarcina lutea IAM1009; [14]) [µg/mL] | response vs control in vivo at 1.5 mg/kg (P388 leukaemia) [%] | response vs control in vivo at 3 mg/kg (P388 leukaemia) [%] | MIC ([4]; IAM1264, read-out: MIC) [µg/mL] | MIC ([5]; IFO12734, read-out: MIC) [µg/mL] | MIC ([6]; IAM1027, read-out: MIC) [µg/mL] | LD50 at 72 h (in vivo) [mg/kg] | MIC ([7]; ATCC13803, read-out: MIC) [µg/mL] | MIC ([8]; ATCC10231, read-out: MIC) [µg/mL] | also measured
1 | COC(=O)C1c2cc3c(c(O)c2C(OC2CC(N(C)C)C(OC4CC(O)C(OC5CCC(O)C(C)O5)C(C)O4)C(C)O2)CC1(O)CC(C)=O)C(=O)c1c(O)cccc1C3=O (centres unmarked) [Sulfurmycin F] | 3.12 (≈ 3.71 µM) | 1.56 (≈ 1.85 µM) | 1.56 (≈ 1.85 µM) | 12.5 (≈ 14.8 µM) | > 50 | > 50 | 3.12 (≈ 3.71 µM) | 0.39 (≈ 0.463 µM) | > 50 | > 50 |  |  |  |  |  |  |  |  |  |  | 
2 | COC(=O)C1c2cc3c(c(O)c2C(OC2CC(N(C)C)C(OC4CCC(OC5CCC(O)C(C)O5)C(C)O4)C(C)O2)CC1(C)O)C(=O)c1c(O)cccc1C3=O (centres unmarked) [Auramycin G] |  |  |  |  |  |  |  |  |  |  | 6.25 (≈ 7.97 µM) | 6.25 (≈ 7.97 µM) | 102 | 109 | > 50 | > 50 | 12.5 (≈ 15.9 µM) | 40 to 80 | > 50 | > 50 | response vs control in vivo at 6 mg/kg (P388 leukaemia): 105%; response vs control in vivo at 12 mg/kg (P388 leukaemia): 119%; MIC [2, 15]: 6.25 µg/mL (≈ 7.97 µM); MIC [3, 16]: 6.25 µg/mL (≈ 7.97 µM); MIC (Bacillus cereus Rol79B; read-out: MIC): 0.78 µg/mL (≈ 0.995 µM)
3 | COC(=O)C1c2cc3c(c(O)c2C(OC2CC(N(C)C)C(OC4CC(O)C(OC5CCC(O)C(C)O5)C(C)O4)C(C)O2)CC1(C)O)C(=O)c1c(O)cccc1C3=O (centres unmarked) [Auramycin E] |  |  |  |  |  |  |  |  |  |  | 1.56 (≈ 1.95 µM) | 3.12 (≈ 3.9 µM) | 131 | 139 | > 50 | > 50 | 3.12 (≈ 3.9 µM) | 20 to 40 | > 50 | > 50 | response vs control in vivo at 6 mg/kg (P388 leukaemia): 158%; response vs control in vivo at 12 mg/kg (P388 leukaemia): 165%; MIC [2, 15]: 3.12 µg/mL (≈ 3.9 µM); MIC [3, 16]: 3.12 µg/mL (≈ 3.9 µM); MIC (Bacillus cereus Rol79B; read-out: MIC): 0.39 µg/mL (≈ 0.488 µM)
4 | COC(=O)C1c2cc3c(c(O)c2C(OC2CC(N(C)C)C(OC4CC(O)C(OC5CCC(O)C(C)O5)C(C)O4)C(C)O2)CC1(C)O)C(=O)c1c(O)cccc1C3=O (centres unmarked) [Auramycin F] | 3.12 (≈ 3.9 µM) | 3.12 (≈ 3.9 µM) | 3.12 (≈ 3.9 µM) | 3.12 (≈ 3.9 µM) | > 50 | > 50 | 3.12 (≈ 3.9 µM) | 0.39 (≈ 0.488 µM) | > 50 | > 50 |  |  |  |  |  |  |  |  |  |  | 
5 | COC(=O)C1c2cc3c(c(O)c2C(OC2CC(N(C)C)C(O)C(C)O2)CC1(C)O)C(=O)c1c(O)cccc1C3=O (centres unmarked) [Auramycin D] |  |  |  |  |  |  |  |  |  |  |  | 6.25 (≈ 11.2 µM) |  |  | > 50 | > 50 | 12.5 (≈ 22.5 µM) | ~90 | > 50 | > 50 | MIC ([1]; read-out: MIC): 12.5 µg/mL (≈ 22.5 µM); response vs control in vivo at 3.75 mg/kg (P388 leukaemia; 3.75 mg/kg/day i.p.): 103%; response vs control in vivo at 7.5 mg/kg (P388 leukaemia; 7.5 mg/kg/day i.p.): 149%; response vs control in vivo at 15 mg/kg (P388 leukaemia; 15.0 mg/kg/day i.p.): 141%; MIC ([2]; ATCC10240, Micrococcus flavus ATCC-10240, read-out: MIC): 12.5 µg/mL (≈ 22.5 µM); MIC [9]: 12.5 µg/mL (≈ 22.5 µM); MIC [10]: 3.13 µg/mL (≈ 5.63 µM); MIC [11]: > 50 µg/mL

— US4401812A, “Anthracycline antibiotics” (Hoffmann-La Roche Inc., priority 1980, dated 1983)
